From ChEMBL document CHEMBL1201862, “PubChem BioAssay data set” (2004)
Values belong to the compound of their own block, whether it stands above or below them. Activity calls are given as the source filed them.

Columns and labels:
Format in all cases: functional
[1] = biological target: Death-associated protein kinase 3 (Homo sapiens, UniProt O43293);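 also: measured as one member of a kinome-wide profiling panel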
[2] = biological target: Serine/threonine-protein kinase D3 (Homo sapiens, UniProt O94806);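 also: determined within a kinase panel screen, with PRKCN as the panel member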
[3] = biological target: Serine/threonine-protein kinase Chk1 (Homo sapiens, UniProt O14757);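 also: measured as one member of a kinome-wide kinase profiling panel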
[4] = biological target: Macrophage-stimulating protein receptor (Homo sapiens, UniProt Q04912); assay: Navigating the Kinome. Panel member name: MST1R
[5] = biological target: ALK tyrosine kinase receptor (Homo sapiens, UniProt Q9UM73);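 also: ALK tested as one member of a kinase panel screen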
[6] = biological target: Cyclin-dependent kinase 19 (Homo sapiens, UniProt Q9BWU1); assay: Navigating the Kinome. Panel member name: CDC2L6
[7] = biological target: T1, Glycogen synthase kinase-3 beta (Homo sapiens, UniProt P49841);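 also: value comes from a broad kinome profiling panel, with GSK3B as the panel member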
T1 sequence (P49841 whole entry): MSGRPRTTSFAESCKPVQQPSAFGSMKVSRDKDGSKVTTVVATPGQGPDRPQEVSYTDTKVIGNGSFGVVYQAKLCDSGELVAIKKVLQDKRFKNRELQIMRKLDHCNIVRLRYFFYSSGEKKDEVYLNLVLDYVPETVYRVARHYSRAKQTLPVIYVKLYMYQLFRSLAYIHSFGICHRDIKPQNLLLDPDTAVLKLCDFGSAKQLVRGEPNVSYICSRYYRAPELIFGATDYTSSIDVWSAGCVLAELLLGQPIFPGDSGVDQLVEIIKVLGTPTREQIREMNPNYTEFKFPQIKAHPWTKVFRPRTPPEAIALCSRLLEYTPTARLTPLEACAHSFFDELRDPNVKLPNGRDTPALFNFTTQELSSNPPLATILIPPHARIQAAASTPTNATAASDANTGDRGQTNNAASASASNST

[8] = biological target: Dual specificity protein kinase CLK2 (Homo sapiens, UniProt P49760)
[9] = biological target: Mitogen-activated protein kinase kinase kinase kinase 4 (Homo sapiens, UniProt O95819)
[10] = biological target: cAMP-dependent protein kinase catalytic subunit alpha (Homo sapiens, UniProt P17612)
[11] = biological target: Tyrosine-protein kinase receptor TYRO3 (Homo sapiens, UniProt Q06418);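 also: TYRO3 value obtained as one member of a kinome-wide profiling panel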
[12] = biological target: Cyclin-dependent kinase 8 (Homo sapiens, UniProt P49336); assay: Navigating the Kinome. Panel member name: CDK8
LIM domain kinase 1 = LIM domain kinase 1 (Homo sapiens, UniProt P53667); assay: Navigating the Kinome. Panel member name: LIMK1
[13] = biological target: Rho-associated protein kinase 1 (Homo sapiens, UniProt Q13464);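 also: measured within a broad kinome-wide panel profiling many kinases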
[14] = biological target: Dual specificity mitogen-activated protein kinase kinase 1 (Homo sapiens, UniProt Q02750); assay: Navigating the Kinome. Panel member name: MAP2K1
[15] = biological target: Serine/threonine-protein kinase TBK1 (Homo sapiens, UniProt Q9UHD2); assay: Navigating the Kinome. Panel member name: TBK1
[16] = biological target: Macrophage colony-stimulating factor 1 receptor (Homo sapiens, UniProt P07333);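 also: value comes from the Navigating the Kinome screening panel, CSF1R member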
Aurora kinase A = Aurora kinase A (Homo sapiens, UniProt O14965);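 also: value from the Navigating the Kinome kinase panel profiling, panel entry STK6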
[17] = biological target: cAMP-dependent protein kinase catalytic subunit PRKX (Homo sapiens, UniProt P51817)
[18] = biological target: T2, Glycogen synthase kinase-3 alpha (Homo sapiens, UniProt P49840);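 also: GSK3A result taken from a broad kinome-wide kinase panel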
T2 sequence (P49840 whole entry): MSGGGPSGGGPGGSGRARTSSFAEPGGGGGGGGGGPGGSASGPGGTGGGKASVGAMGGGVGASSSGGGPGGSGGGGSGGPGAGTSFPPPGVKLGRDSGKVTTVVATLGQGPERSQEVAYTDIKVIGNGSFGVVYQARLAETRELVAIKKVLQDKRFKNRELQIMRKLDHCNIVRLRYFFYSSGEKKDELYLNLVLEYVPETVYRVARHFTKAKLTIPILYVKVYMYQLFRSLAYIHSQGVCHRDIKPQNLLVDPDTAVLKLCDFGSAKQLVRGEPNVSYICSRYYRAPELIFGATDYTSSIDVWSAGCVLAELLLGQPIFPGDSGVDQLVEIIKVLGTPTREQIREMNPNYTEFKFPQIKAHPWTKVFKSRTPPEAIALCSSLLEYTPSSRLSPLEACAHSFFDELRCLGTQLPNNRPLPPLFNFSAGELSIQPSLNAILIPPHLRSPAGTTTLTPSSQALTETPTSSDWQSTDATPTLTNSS

[19] = biological target: Fibroblast growth factor receptor 1 (Homo sapiens, UniProt P11362)
[20] = biological target: Mitogen-activated protein kinase kinase kinase kinase 2 (Homo sapiens, UniProt Q12851);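 also: measured as one member of a kinome-wide kinase panel, with MAP4K2 as the panel entry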
Mitogen-activated protein kinase kinase kinase kinase 2, sequence (Q12851 whole entry): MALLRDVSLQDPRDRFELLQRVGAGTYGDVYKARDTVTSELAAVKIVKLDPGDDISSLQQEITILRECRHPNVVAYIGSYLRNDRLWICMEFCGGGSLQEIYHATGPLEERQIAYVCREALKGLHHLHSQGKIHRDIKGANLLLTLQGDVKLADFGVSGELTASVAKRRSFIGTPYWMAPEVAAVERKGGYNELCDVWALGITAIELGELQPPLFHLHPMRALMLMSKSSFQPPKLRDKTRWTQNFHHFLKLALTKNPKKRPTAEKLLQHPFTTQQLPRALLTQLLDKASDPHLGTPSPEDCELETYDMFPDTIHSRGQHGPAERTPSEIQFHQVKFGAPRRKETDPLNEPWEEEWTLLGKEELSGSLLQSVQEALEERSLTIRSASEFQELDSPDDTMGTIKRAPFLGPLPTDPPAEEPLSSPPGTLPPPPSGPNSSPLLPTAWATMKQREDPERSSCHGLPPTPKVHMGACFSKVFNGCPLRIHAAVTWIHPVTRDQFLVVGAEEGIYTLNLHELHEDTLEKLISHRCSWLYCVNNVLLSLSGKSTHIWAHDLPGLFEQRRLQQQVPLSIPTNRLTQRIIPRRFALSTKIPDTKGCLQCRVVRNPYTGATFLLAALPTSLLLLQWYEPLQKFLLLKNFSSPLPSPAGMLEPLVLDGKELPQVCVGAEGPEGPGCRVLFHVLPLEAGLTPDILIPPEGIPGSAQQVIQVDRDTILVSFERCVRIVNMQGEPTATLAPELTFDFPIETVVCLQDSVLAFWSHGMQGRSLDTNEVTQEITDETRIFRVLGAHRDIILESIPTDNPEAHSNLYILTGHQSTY

[21] = biological target: Leucine-rich repeat serine/threonine-protein kinase 2 (Homo sapiens, UniProt Q5S007);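 also: value from a broad kinome-wide panel profiling study in which LRRK2 was one of the kinases tested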
Leucine-rich repeat serine/threonine-protein kinase 2, sequence (Q5S007 whole entry): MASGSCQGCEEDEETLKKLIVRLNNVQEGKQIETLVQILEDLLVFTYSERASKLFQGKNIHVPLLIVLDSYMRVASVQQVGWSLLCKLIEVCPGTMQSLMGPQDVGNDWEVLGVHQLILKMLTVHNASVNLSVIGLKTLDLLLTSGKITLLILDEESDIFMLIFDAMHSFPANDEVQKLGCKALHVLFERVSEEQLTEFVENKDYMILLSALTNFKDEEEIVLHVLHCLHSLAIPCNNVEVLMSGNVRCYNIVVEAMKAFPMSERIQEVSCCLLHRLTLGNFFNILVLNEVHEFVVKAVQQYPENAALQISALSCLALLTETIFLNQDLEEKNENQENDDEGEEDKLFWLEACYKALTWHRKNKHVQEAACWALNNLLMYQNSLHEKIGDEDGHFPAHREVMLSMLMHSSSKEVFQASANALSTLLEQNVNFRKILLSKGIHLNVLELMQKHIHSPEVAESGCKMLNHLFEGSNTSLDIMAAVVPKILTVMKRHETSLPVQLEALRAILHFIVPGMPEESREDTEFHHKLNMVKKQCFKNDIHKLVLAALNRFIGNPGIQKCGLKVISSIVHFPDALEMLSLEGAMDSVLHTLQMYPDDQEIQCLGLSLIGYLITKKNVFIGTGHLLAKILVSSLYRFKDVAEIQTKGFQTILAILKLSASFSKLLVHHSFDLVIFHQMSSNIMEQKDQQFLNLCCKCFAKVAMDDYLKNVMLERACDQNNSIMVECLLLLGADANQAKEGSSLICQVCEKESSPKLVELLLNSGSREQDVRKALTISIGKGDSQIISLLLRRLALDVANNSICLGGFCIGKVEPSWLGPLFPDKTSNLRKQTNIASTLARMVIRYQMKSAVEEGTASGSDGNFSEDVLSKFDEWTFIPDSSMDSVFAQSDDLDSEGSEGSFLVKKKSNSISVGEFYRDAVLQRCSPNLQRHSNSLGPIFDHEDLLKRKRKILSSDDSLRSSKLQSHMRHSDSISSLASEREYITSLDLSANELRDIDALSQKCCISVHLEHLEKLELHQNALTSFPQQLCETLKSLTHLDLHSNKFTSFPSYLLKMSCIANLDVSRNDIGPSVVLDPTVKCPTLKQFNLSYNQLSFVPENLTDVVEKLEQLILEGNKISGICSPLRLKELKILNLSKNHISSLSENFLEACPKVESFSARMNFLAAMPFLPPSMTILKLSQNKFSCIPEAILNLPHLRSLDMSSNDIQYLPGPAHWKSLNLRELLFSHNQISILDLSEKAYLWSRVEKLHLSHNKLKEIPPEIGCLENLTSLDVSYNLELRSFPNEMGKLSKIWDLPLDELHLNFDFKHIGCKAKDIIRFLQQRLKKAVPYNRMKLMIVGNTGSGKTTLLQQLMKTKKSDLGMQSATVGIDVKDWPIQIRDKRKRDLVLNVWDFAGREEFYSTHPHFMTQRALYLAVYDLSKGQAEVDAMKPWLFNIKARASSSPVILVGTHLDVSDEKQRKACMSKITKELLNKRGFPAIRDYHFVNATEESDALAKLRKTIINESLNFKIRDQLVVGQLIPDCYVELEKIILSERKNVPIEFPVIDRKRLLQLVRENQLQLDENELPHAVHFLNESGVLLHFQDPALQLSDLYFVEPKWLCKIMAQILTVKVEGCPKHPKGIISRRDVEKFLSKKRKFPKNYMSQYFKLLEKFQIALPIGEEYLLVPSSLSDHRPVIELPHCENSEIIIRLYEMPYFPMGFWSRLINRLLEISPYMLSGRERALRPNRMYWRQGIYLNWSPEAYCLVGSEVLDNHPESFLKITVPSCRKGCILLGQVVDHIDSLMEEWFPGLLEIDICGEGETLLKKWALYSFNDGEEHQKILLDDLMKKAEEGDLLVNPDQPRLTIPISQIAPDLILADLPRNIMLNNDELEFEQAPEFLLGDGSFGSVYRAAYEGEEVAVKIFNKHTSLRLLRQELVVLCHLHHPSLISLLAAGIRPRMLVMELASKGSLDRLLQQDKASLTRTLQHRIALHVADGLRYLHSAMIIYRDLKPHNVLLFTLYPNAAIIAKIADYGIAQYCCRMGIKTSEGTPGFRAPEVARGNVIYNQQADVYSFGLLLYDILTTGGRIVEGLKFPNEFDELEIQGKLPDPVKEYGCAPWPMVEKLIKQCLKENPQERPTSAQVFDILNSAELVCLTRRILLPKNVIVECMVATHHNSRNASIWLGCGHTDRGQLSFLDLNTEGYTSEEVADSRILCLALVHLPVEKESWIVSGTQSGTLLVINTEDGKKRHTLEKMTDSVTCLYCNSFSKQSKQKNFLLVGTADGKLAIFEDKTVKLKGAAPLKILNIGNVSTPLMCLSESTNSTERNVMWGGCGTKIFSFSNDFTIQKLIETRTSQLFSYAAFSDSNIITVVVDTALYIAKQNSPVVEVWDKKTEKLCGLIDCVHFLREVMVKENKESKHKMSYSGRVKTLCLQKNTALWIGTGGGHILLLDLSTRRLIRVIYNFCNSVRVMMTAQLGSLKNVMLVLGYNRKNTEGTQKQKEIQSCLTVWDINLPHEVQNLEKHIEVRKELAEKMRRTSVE

[22] = biological target: Calcium/calmodulin-dependent protein kinase type II subunit alpha (Homo sapiens, UniProt Q9UQM7); assay: Navigating the Kinome. Panel member name: CAMK2A
[23] = biological target: Serine/threonine-protein kinase pim-1 (Homo sapiens, UniProt P11309)
[24] = biological target: Mitogen-activated protein kinase 8 (Homo sapiens, UniProt P45983);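 also: value comes from one member of a kinome-wide kinase profiling panel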
Activin receptor type-1 = Activin receptor type-1 (Homo sapiens, UniProt Q04771); assay: Navigating the Kinome. Panel member name: ACVR1
[25] = biological target: 5'-AMP-activated protein kinase catalytic subunit alpha-1 (Homo sapiens, UniProt Q13131)
5'-AMP-activated protein kinase catalytic subunit alpha-1, sequence (Q13131 whole entry): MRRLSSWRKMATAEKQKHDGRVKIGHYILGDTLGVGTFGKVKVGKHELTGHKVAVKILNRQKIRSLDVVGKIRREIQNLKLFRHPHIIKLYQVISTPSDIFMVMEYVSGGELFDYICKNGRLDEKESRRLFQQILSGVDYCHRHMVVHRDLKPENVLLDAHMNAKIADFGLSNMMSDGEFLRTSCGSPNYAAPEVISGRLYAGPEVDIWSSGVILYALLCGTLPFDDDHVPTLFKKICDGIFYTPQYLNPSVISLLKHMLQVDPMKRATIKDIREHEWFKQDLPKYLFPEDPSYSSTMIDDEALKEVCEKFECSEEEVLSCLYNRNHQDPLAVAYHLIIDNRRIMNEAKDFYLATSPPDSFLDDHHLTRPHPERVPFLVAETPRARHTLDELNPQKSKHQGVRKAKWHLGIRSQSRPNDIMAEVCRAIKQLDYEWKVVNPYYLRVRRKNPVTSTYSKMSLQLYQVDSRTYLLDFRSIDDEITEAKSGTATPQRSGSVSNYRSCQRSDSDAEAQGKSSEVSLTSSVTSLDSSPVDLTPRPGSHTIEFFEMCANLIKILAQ

[26] = biological target: Serine/threonine-protein kinase PAK 4 (Homo sapiens, UniProt O96013);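 also: value obtained within a kinome profiling panel in which PAK4 was one of the panel members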
[27] = biological target: Ribosomal protein S6 kinase alpha-3 (Homo sapiens, UniProt P51812);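 also: measured within a kinome-wide profiling panel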
[28] = biological target: Casein kinase I isoform alpha (Homo sapiens, UniProt P48729)
[29] = biological target: Dual specificity tyrosine-phosphorylation-regulated kinase 1A (Homo sapiens, UniProt Q13627);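 also: measured against DYRK1A as one member of a broad kinome profiling panel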
[30] = biological target: Leukocyte tyrosine kinase receptor (Homo sapiens, UniProt P29376); assay: Navigating the Kinome. Panel member name: LTK
[31] = biological target: Protein kinase C theta type (Homo sapiens, UniProt Q04759); assay: Navigating the Kinome. Panel member name: PRKCQ
[32] = biological target: Cyclin-dependent kinase 9 (Homo sapiens, UniProt P50750);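 also: value from the CDK9 entry of a kinome-spanning kinase panel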
Aurora kinase B = Aurora kinase B (Homo sapiens, UniProt Q96GD4)
[33] = biological target: Vascular endothelial growth factor receptor 1 (Homo sapiens, UniProt P17948);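 also: measured within a kinome-wide profiling panel, FLT1 as the panel member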
[34] = biological target: Tyrosine-protein kinase ABL1 (Homo sapiens, UniProt P00519)
[35] = biological target: Proto-oncogene tyrosine-protein kinase receptor Ret (Homo sapiens, UniProt P07949);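 also: measured within a kinome-wide profiling panel, RET as the panel member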
[36] = biological target: Cyclin-dependent kinase 7 (Homo sapiens, UniProt P50613);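 also: value comes from a kinome-wide kinase profiling panel in which CDK7 is one member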
[37] = biological target: Vascular endothelial growth factor receptor 2 (Homo sapiens, UniProt P35968)
[38] = biological target: Dual specificity tyrosine-phosphorylation-regulated kinase 1B (Homo sapiens, UniProt Q9Y463); assay: Navigating the Kinome. Panel member name: DYRK1B
[39] = biological target: Dual specificity protein kinase CLK4 (Homo sapiens, UniProt Q9HAZ1)
Focal adhesion kinase 1 = Focal adhesion kinase 1 (Homo sapiens, UniProt Q05397);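 also: measured as one member of a kinome panel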
[40] = biological target: T1, Glycogen synthase kinase-3 beta; assay: inhibition of human GSK3B activity – biochemical, microfluidics, dry powder samples, set 2, dose response (AID 623989)
[41] = biological target: T2, Glycogen synthase kinase-3 alpha; assay: GSK3A enzyme blockers, homolog specificity check – biochemical, microfluidics, dry powder samples, set 2, selectivity assay for GSK3beta inhibitor project, dose response (AID 623978)
[42] = biological target: Cyclin-dependent kinase 5/CDK5 activator 1 (Homo sapiens, UniProt Q00535); assay: inhibitors of human CDK5 activity – biochemical, microfluidic mobility shift, dry powder, set 2, selectivity assay for GSK3beta inhibitor project, dose response (AID 623979)
[43] = biological target: Melanin-concentrating hormone receptor 1 (Homo sapiens, UniProt Q99705); assay: Late-stage fluorescence-based counterscreen for antagonists of the G-protein coupled receptor 7 (GPR7): cell-based dose response assay to identify antagonists of the melanin-concentrating hormone receptor 1 (MCHR1) Set 5.
[44] = biological target: T3, Neuropeptides B/W receptor type 1 (Homo sapiens, UniProt P48145); assay: human NPBW1 receptor blockade, IC50 – cell-based, fluorescence, dose response, set 5, late-stage follow-up (AID 588566)
T3 sequence (P48145 whole entry): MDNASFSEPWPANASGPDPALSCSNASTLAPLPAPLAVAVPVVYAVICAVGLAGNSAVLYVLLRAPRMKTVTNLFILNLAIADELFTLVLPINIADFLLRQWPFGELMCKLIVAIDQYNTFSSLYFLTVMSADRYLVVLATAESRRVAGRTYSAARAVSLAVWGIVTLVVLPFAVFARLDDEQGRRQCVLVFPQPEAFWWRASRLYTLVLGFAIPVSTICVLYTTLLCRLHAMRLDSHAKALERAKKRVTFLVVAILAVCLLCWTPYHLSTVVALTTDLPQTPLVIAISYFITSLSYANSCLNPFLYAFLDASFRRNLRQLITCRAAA

Ki [2]: 39.8 µM (active) | Ki [3]: 12.6 µM (active) | Ki [4]: 39.8 µM (active) | Ki [5]: 63.1 µM (active) | Ki [6]: > 100 µM (inactive) | Ki [7]: 5.01 µM (active) | Ki [8]: 15.8 µM (active) | Ki [9]: 25.1 µM (active) | Ki [10]: 3.98 µM (active) | Ki [11]: 79.4 µM (active) | Ki [12]: 0.794 µM (active) | Ki (LIM domain kinase 1): 15.8 µM (active) | Ki [13]: 1.58 µM (active) | Ki [14]: 10 µM (active) | Ki [15]: 79.4 µM (active) | Ki [16]: > 100 µM (inactive) | Ki (Aurora kinase A): 63.1 µM (active) | Ki [17]: 15.8 µM (active) | Ki [18]: 3.98 µM (active) | Ki [19]: 63.1 µM (active) | Ki [20]: 10 µM (active) | Ki [21]: 10 µM (active) | Ki [22]: 79.4 µM (active) | Ki [23]: 39.8 µM (active) | Ki [24]: 63.1 µM (active) | Ki (Activin receptor type-1): 79.4 µM (active) | Ki [25]: 31.6 µM (active) | Ki [26]: 79.4 µM (active) | Ki [27]: 25.1 µM (active) | Ki [28]: 1.58 µM (active) | Ki [29]: 3.16 µM (active) | Ki [30]: 12.6 µM (active) | Ki [31]: 3.16 µM (active) | Ki [32]: 0.501 µM (active) | Ki (Aurora kinase B): 31.6 µM (active) | Ki [33]: 7.94 µM (active) | Ki [34]: 79.4 µM (active) | Ki [35]: 63.1 µM (active) | Ki [36]: 12.6 µM (active) | Ki [37]: 7.94 µM (active) | Ki [38]: 1.26 µM (active) | Ki [39]: 0.794 µM (active) | Ki (Focal adhesion kinase 1): 100 µM (active)
SMILES: NC(=O)c1cc2ccncc2s1
Ki [1]: 2.51 µM (active)

AC50 [40]: 0.958 µM (active) | AC50 [41]: 10.4 µM (active) | AC50 [42]: 16.8 µM (active)
SMILES: COc1cc(/C=N/n2c(S)nnc2C2CCCCC2)cc(Br)c1O

IC50 [43]: 12.1 µM (inactive) | IC50 [44]: 0.569 µM (active)
SMILES: COc1cccc(C(C#N)c2c(Cl)cnn(Cc3cccc4ccccc34)c2=O)c1 (centres undefined)
